Experimental data reported in patent US20200399262A1, “COMPOUNDS FOR INHIBITING PROTEIN DEGRADATION AND METHODS OF USE THEREOF IN THE TREATMENT OF CANCER” (PI Therapeutics Ltd, priority 2018, published 2020).

Tests used:
Test in all cases: Cell viability panel, ATPlite 1Step
Type in all cases: cell-based
RL = settings: Homo sapiens, Diffuse large B-cell lymphoma, 72 h exposure, read-out: Compound EC50
Experimental: (§1) Cell viability panel studies. Cells were diluted in the corresponding ATCC recommended medium and dispensed in a 384-well plate, depending on the cell line used, at a density of 200-6400 cells per well. For each used cell line, the optimal cell density was used. Compound was serially diluted and 8 concentration (0.04-32 μM) were added to the cells for 72 h exposure. At t=end, of ATPlite 1Step™ (PerkinElmer) were used to calculate cell viability. Cell lines marked with asterisk were seeded 24 h prior to treatment in 96-well plates at the density range of 5,000-40,000 cells/well, according to duplication rate, in RPMI 1640 medium containing 10% fetal bovine serum and 2 mM L-glutamine. Compounds were diluted from 10 mM DMSO stock and treatment was applied at the range of 0.04-1 μM. Following incubation at 37° C. for 48 hours with increasing concentrations of the compounds, viability was determined with CyQUANT® Direct Assay Kit (Invitrogen). Output intensities were normalized to values after treatment with DMSO alone, and EC50 values were calculated using the absorbance measurements [time zero, (Tz), growth control, (C), plus the test growth at the four drug concentration levels (Ti)] as follows: [(Ti−Tz)/(C−Tz)]×100 for concentrations for which Ti>/=Tz; [(Ti−Tz)/Tz]×100 for concentrations for which Ti−<Tz.

NCI-H82 = settings: Homo sapiens, Small cell lung carcinoma, 72 h exposure, read-out: Compound EC50
Experimental: as §1

ACHN = settings: Homo sapiens, Papillary renal cell carcinoma, 72 h exposure, read-out: Compound EC50
Experimental: as §1

SW982 = settings: Homo sapiens, Biphasic synovial sarcoma, 72 h exposure, read-out: Compound EC50
Experimental: as §1

CAL 27 = settings: Homo sapiens, Tongue squamous cell carcinoma, 72 h exposure, read-out: Compound EC50
Experimental: as §1

MeWo = settings: Homo sapiens, Melanoma, 72 h exposure, read-out: Compound EC50
Experimental: as §1

A-498 = settings: Homo sapiens, A498, Renal cell carcinoma, 72 h exposure, read-out: Compound EC50
Experimental: as §1

CCF-STTG1 = settings: Homo sapiens, Astrocytoma, 72 h exposure, read-out: Compound EC50
Experimental: as §1

MCF7 = settings: Homo sapiens, Invasive ductal carcinoma, 72 h exposure, read-out: Compound EC50
Experimental: as §1

MIA PaCa-2 = settings: Homo sapiens, Pancreatic ductal adenocarcinoma, 72 h exposure, read-out: Compound EC50
Experimental: as §1

KLE = settings: Homo sapiens, Endometrial adenocarcinoma, 72 h exposure, read-out: Compound EC50
Experimental: as §1

5637 = settings: Bladder carcinoma, 72 h exposure, read-out: Compound EC50
Experimental: as §1

SU-DHL-6 = settings: Homo sapiens, Diffuse large B-cell lymphoma, 72 h exposure, read-out: Compound EC50
Experimental: as §1

SW837 = settings: Homo sapiens, Rectal adenocarcinoma, 72 h exposure, read-out: Compound EC50
Experimental: as §1

K-562 = settings: Homo sapiens, K562, Chronic myelogenous leukemia, 72 h exposure, read-out: Compound EC50
Experimental: as §1

COLO 829 = settings: Homo sapiens, Cutaneous melanoma, 72 h exposure, read-out: Compound EC50
Experimental: as §1

A-172 = settings: Homo sapiens, Glioblastoma, 72 h exposure, read-out: Compound EC50
Experimental: as §1

BT-20 = settings: Homo sapiens, Invasive ductal carcinoma, 72 h exposure, read-out: Compound EC50
Experimental: as §1

SK-N-FI = settings: Homo sapiens, Neuroblastoma, 72 h exposure, read-out: Compound EC50
Experimental: as §1

RPMI-7951 = settings: Homo sapiens, Melanoma, 72 h exposure, read-out: Compound EC50
Experimental: as §1

HCT-15 = settings: Homo sapiens, Colon adenocarcinoma, 72 h exposure, read-out: Compound EC50
Experimental: as §1

DU 145 = settings: Homo sapiens, Prostate carcinoma, 72 h exposure, read-out: Compound EC50
Experimental: as §1

A375 = settings: Homo sapiens, A-375, Amelanotic melanoma, 72 h exposure, read-out: Compound EC50
Experimental: as §1

SNU-C2B = settings: Homo sapiens, Cecum adenocarcinoma, 72 h exposure, read-out: Compound EC50
Experimental: as §1

SW626 = settings: Homo sapiens, Colon adenocarcinoma, 72 h exposure, read-out: Compound EC50
Experimental: as §1

FaDu = settings: Homo sapiens, Hypopharyngeal squamous cell carcinoma, 72 h exposure, read-out: Compound EC50
Experimental: as §1

THP-1 = settings: Homo sapiens, Acute monocytic leukemia, 72 h exposure, read-out: Compound EC50
Experimental: as §1

Jurkat E6.1 = settings: Homo sapiens, T acute lymphoblastic leukemia, 72 h exposure, read-out: Compound EC50
Experimental: as §1

786-O = settings: Homo sapiens, 786-0, Renal cell carcinoma, 72 h exposure, read-out: Compound EC50
Experimental: as §1

NCI-H661 = settings: Homo sapiens, Large cell lung carcinoma, 72 h exposure, read-out: Compound EC50
Experimental: as §1

## CN(C)CCCS(=O)(=O)N1C/C(=C\c2ccc(C#N)cc2)C(=O)/C(=C/c2ccc(C#N)cc2)C1 [Compound AA]
RL
  EC50: < 0.3 µM
NCI-H82
  EC50: < 0.3 µM
ACHN
  EC50: 0.3 to 1 µM
SW982
  EC50: < 0.3 µM
CAL 27
  EC50: < 0.3 µM
MeWo
  EC50: 0.3 to 1 µM
A-498
  EC50: 0.3 to 1 µM
CCF-STTG1
  EC50: < 0.3 µM
MCF7
  EC50: ≥ 1 µM
MIA PaCa-2
  EC50: 0.3 to 1 µM
KLE
  EC50: ≥ 1 µM
5637
  EC50: < 0.3 µM
SU-DHL-6
  EC50: < 0.3 µM
SW837
  EC50: 0.3 to 1 µM
K-562
  EC50: < 0.3 µM
COLO 829
  EC50: < 0.3 µM
A-172
  EC50: < 0.3 µM
BT-20
  EC50: ≥ 1 µM
SK-N-FI
  EC50: < 0.3 µM
RPMI-7951
  EC50: < 0.3 µM
HCT-15
  EC50: 0.3 to 1 µM
DU 145
  EC50: 0.3 to 1 µM
A375
  EC50: < 0.3 µM
SNU-C2B
  EC50: 0.3 to 1 µM
SW626
  EC50: < 0.3 µM
FaDu
  EC50: < 0.3 µM
THP-1
  EC50: 0.3 to 1 µM
Jurkat E6.1
  EC50: < 0.3 µM
786-O
  EC50: < 0.3 µM
NCI-H661
  EC50: 0.3 to 1 µM
